Experimental data taken from patent publication US6300368A, “Anilide derivatives and antiarrhythmic agents containing the same” (priority 1998, dated 2001).

Test system: aconitin-induced atrial fibrillation
Test: Aconitin-induced atrial fibrillation model in anaesthetized dogs (Pharmacological Trial 1)
Assay type: in vivo, dog
Conditions: Canis lupus familiaris; intravenous, anesthetized dogs, as hydrochloride; read-out: minimum dose level which suppresses atrial fibrillation
Method: Pharmacological Trial 1: Evaluation of effectiveness in aconitin-induced atrial fibrillation model (dogs) Evaluation was performed according to K. Hashimoto (Jpn. J. Pharmacol., Vol. 46, 349-358, 1988) as follows:
Method: Dog was anesthetized and thoracotomy was made. Persistent atrial fibrillation was induced by placing a piece of filter paper impregnated with 0.5% aconitin solution (20 to 30 μl) on the right atrium. […] Onset and suppression of atrial fibrillation were monitored electrocardiographically by placing Ag--AgCl bipolar electrode on the right atrial auricle.
Results: Each compound in Examples 1 to 87 suppressed atrial fibrillation at least following dose level (all compounds were used in the form of hydrochloride).

SMILES	minimal effective dose
COCCNCCOc1ccc(NC(=O)CCOC)cc1.Cl [Example 44, 4'-[2-[(2-Methoxyethyl)amino]ethoxy]-3-methoxy propananilide Hydrochloride]	10 mg/kg
CS(=O)(=O)Nc1ccccc1C(=O)Nc1ccc(OCCN2CCCC2)cc1 [Example 17, 2-Methanesulfonamido-4'-[2-(1-pyrrolidinyl)ethoxy]benzanilide]	10 mg/kg
Cc1cc(NC(=O)C2CCOCC2)cc(C)c1OCCNC(C)C.Cl [Example 85, 4'-[2-(Isopropylamino)ethoxy]-3',5'-dimethyl-3,4,5,6-tetrahydro-2H-pyran-4-carboxanilide Hydrochloride]	10 mg/kg
COc1cccc(OC)c1C(=O)Nc1ccc(OCCNC(C)(C)C)cc1 [Example 39, 2,6-Dimethoxy-4'-[2-(tert-butylamino)ethoxy]benzanilide]	10 mg/kg
COc1cccc(OC)c1C(=O)Nc1ccc(OCCN2CCCCC2)cc1 [Example 18, 2,6-Dimethoxy-4'-(2-piperidinoethoxy)benzanilide]	10 mg/kg
COCCC(=O)Nc1ccc(OCCNC2CC2)cc1 [Example 53, 4'-[2-(Cyclopropylamino)ethoxy]-3-methoxypropananilide]	10 mg/kg
CCN(CC)CCOc1ccc(NC(=O)c2ccccc2NS(=O)(=O)C(C)C)cc1.Cl [Example 12, 4'-[2-(Diethylamino)ethoxy]-2-(isopropanesulfonamido)benzanilide Hydrochloride]	3 mg/kg
COc1cccc(OC)c1C(=O)Nc1ccc(OCCNC(C)C)cc1 [Example 30, 4'-[2-(Isopropylamino)ethoxy]-2,6-dimethoxybenzanilide]	10 mg/kg
COc1cccc(OC)c1C(=O)Nc1ccc(OCCNC(C)C)c(C)c1.Cl [Example 74, 4'-[2-(Isopropylamino)ethoxy]-2,6-dimethoxy-3'-methylbenzanilide Hydrochloride]	3 mg/kg
Cc1cc(NC(=O)C2CCOC2)cc(C)c1OCCNC(C)C.Cl (stereo not shown) [Example 84, 4'-[2-(Isopropylamino)ethoxy]-3',5'-dimethyl-2,3,4,5-tetrahydro-3-furanilide Hydrochloride]	10 mg/kg
CCCNCCOc1ccc(NC(=O)C2CCOC2)cc1.Cl (stereo not shown) [Example 27, 4'-[2-(Propylamino)ethoxy]-2,3,4,5-tetrahydro-3-furanilide Hydrochloride]	3 mg/kg
Cc1cc(NC(=O)c2ccoc2)ccc1OCCNC(C)C.Cl [Example 79, 4'-[2-(Isopropylamino)ethoxy]-3'-methyl-3-furanilide Hydrochloride]	10 mg/kg
CC(C)NCCOc1ccc(NC(=O)c2ccccc2NS(C)(=O)=O)cc1NS(C)(=O)=O.Cl [Example 66, 4'-[2-(Isopropylamino)ethoxy]-2-methanesulfonamido-3'-(methanesulfonamido)benzanilide Hydrochloride]	3 mg/kg
COc1cccc(OC)c1C(=O)Nc1ccc(OCCN2CCCC2)cc1 [Example 16, 2,6-Dimethoxy-4'-[2-(1-pyrrolidinyl)ethoxy]benzanilide]	10 mg/kg
CCCN(CCC)CCOc1ccc(NC(=O)c2c(C)cccc2C)cc1 [Example 14, 4'-[2-(Dipropylamino)ethoxy]-2,6-dimethylbenzanilide]	3 mg/kg
COc1cccc(OC)c1C(=O)Nc1ccc(OCCN)cc1.Cl [Example 1, 4'-(2-aminoethoxy)-2,6-dimethoxybenzanilide Hydrochloride]	10 mg/kg
CC(C)NCCOc1ccc(NC(=O)c2ccoc2)cc1.Cl [Example 35, 4'-[2-(Isopropylamino)ethoxy]-3-furanilide Hydrochloride]	10 mg/kg
CCNCCOc1c(C)cc(NC(=O)c2ccccc2S(C)(=O)=O)cc1C.Cl [Example 81, 4'-[2-(Ethylamino)ethoxy]-2-methanesulfonyl-3',5'-dimethylbenzanilide Hydrochloride]	3 mg/kg
CCN(CC)CCOc1ccc(NC(=O)c2c(OC)cccc2OC)c(C)c1 [Example 73, 4'-[2-(Diethylamino)ethoxy]-2-dimethoxy-2'-methyl Benzanilide]	3 mg/kg
CCOc1cccc(OCC)c1C(=O)Nc1ccc(OCCN(CC)CC)cc1.Cl [Example 8, 4'-[2-(Diethylamino)ethoxy]-2,6-diethoxybenzanilide Hydrochloride]	10 mg/kg
CCNCCOc1c(C)cc(NC(=O)c2ccccc2NS(C)(=O)=O)cc1C.Cl [Example 80, 4'-[2-(Ethylamino)ethoxy]-2-methanesulfonamido-3',5'-dimethylbenzanilide Hydrochloride]	3 mg/kg
COCCNCCOc1ccc(NC(=O)c2ccccc2NS(C)(=O)=O)cc1 [Example 42, 2-Methanesulfonamido-4'-[2-[(2-methoxyethyl)amino]ethoxy]benzanilide]	3 mg/kg

SMILES	minimal effective dose
Cc1cccc(C)c1C(=O)Nc1ccc(OCCNC(C)C)cc1 [Example 31, 4'-[2-(Isopropylamino)ethoxy]-2,6-dimethylbenzanilide]	10 mg/kg
CCCS(=O)(=O)Nc1ccccc1C(=O)Nc1ccc(OCCN(CC)CC)cc1.Cl [Example 11, 4'-[2-(Diethylamino)ethoxy]-2-(propanesulfonamido)benzanilide Hydrochloride]	3 mg/kg
Cc1cccc(C)c1C(=O)Nc1ccc(OCCN2CCOCC2)cc1 [Example 19, 2,6-Dimethyl-4'-(2morpholinoethoxy)benzanilide]	3 mg/kg
CCOCCNCCOc1ccc(NC(=O)c2ccccc2NS(C)(=O)=O)cc1 [Example 47, 4'-[2-[(2-Ethoxyethyl)amino]ethoxy]-2-(methanesulfonamido)benzanilide]	3 mg/kg
COc1cccc(OC)c1C(=O)Nc1ccc(OCCNC2CCCCC2)cc1 [Example 55, 4'-[2-(Cyclohexylamino)ethoxy]-2,6-dimethoxybenzanilide]	0.3 mg/kg
CS(=O)(=O)Nc1cc(NC(=O)c2ccccc2NS(C)(=O)=O)ccc1OCCNC1CCCC1.Cl [Example 68, 4'-[2-(Cyclopentylamino)ethoxy]-2-methanesulfonamido-3'-(methanesulfonamido)benzanilide Hydrochloride]	10 mg/kg
Cc1cc(NC(=O)c2ccoc2)cc(C)c1OCCNC(C)C.Cl [Example 87, 4'-[2-(Isopropylamino)ethoxy]-3',5'-dimethyl-3-furanilide Hydrochloride]	10 mg/kg
CCNCCOc1ccc(NC(=O)c2ccccc2S(C)(=O)=O)cc1.Cl [Example 22, 4'-[(2-Ethylamino)ethoxy]-2-(methanesulfonyl)benzanilide Hydrochloride]	3 mg/kg
CC(C)NCCOc1ccc(NC(=O)c2ccccc2NS(C)(=O)=O)cc1.Cl [Example 29, 4'-[2-(Isopropylamino)ethoxy]-2-(methanesulfonamido) benzanilide Hydrochloride]	0.3 mg/kg
COc1cccc(OC)c1C(=O)Nc1ccc(OCCNC2CC2)cc1 [Example 50, 4'-[2-(Cyclopropylamino)ethoxy]-2,6-dimethoxybenzanilide]	3 mg/kg
Cc1cc(NC(=O)C2CCOCC2)ccc1OCCNC(C)C.Cl [Example 77, 4'-[2-(Isopropylamino)ethoxy]-3'-methyl-3,4,5,6-tetrahydro-2H-pyran-4-carboxanilide Hydrochloride]	10 mg/kg
CCCNCCOc1ccc(NC(=O)C2CCOCC2)cc1.Cl [Example 28, 4'-[2-(Propylamino)ethoxy]-3,4,5,6-tetrahydro-2H-pyran-4-carboxanilide Hydrochloride]	3 mg/kg
COCCCNCCOc1ccc(NC(=O)c2c(OC)cccc2OC)cc1 [Example 48, 2,6-Dimethoxy-4'-[2-[(3-methoxypropyl)amino]ethoxy]benzanilide]	3 mg/kg
COc1cccc(OC)c1C(=O)Nc1ccc(OCCNC(C)C)c(NS(C)(=O)=O)c1 [Example 65, 4'-[2-(Isopropylamino)ethoxy]-3'-methanesulfonamido-2,6-dimethoxybenzanilide]	10 mg/kg
CCNCCOc1ccc(NC(=O)C2CCOCC2)cc1.Cl [Example 3, 4'-[2-(ethylamino)ethoxy]-3,4,5,6-tetrahydro-2H-pyran-4-carboxanilide Hydrochloride]	10 mg/kg
COCCC(=O)Nc1ccc(OCCNC2CCCC2)c(OC)c1 [Example 61, 4'-[2-(Cyclopentylamino)ethoxy]-3'-methoxy-3-methoxypropananilide]	10 mg/kg
CC(C)NCCOc1ccc(NC(=O)C2CCOC2)cc1.Cl (stereo not shown) [Example 33, 4'-[2-(Isopropylamino)ethoxy]-2,3,4,5-tetrahydro-3-furanilide Hydrochloride]	10 mg/kg
COCCC(=O)Nc1cc(C)c(OCCNC(C)C)c(C)c1.Cl [Example 86, 4'-[2-(Isopropylamino)ethoxy]-3-methoxy-3',5'-dimethyl propananilide Hydrochloride]	3 mg/kg
CCNCCOc1ccc(NC(=O)c2c(OC)cccc2OC)cc1.Cl [Example 20, 4'-[(2-Ethylamino)ethoxy]-2,6-dimethoxybenzanilide Hydrochloride]	10 mg/kg
CC(C)NCCOc1ccc(NC(=O)c2ccoc2)cc1NS(C)(=O)=O.Cl [Example 67, 4'-[2-(Isopropylamino)ethoxy]-3'-methanesulfonamido-3-furanilide Hydrochloride]	10 mg/kg
COc1cc(NC(=O)c2c(OC)cccc2OC)ccc1OCCNC(C)C.Cl [Example 4, 4'-[2-(isopropylamino)ethoxy]-2,6-dimethoxy-3'-methoxybenzanilide Hydrochloride]	10 mg/kg
